Source: US4644000A, “Microbicidal agents containing 2-(1H-pyrazol-1-yl)-4-(3H)-quinazolinones” (Bayer Aktiengesellschaft, priority 1984, dated 1987)
≈ marks a conversion by molar mass, not a printed value.

Key:
[1] = tested on: microbes (bacteria, yeasts and moulds); assay: Preservation of cooling lubricant use dilutions; conditions: 3-5% strength use dilutions, contaminated each day for 3 months; 3% preservative in cooling lubricant
Protocol: 3% of a preservative composed of 90% of benzyl alcohol mono(poly)hemiformaland 10% of active compound E is added to a cooling lubricant based on mineral oil.
3-5% strength use dilutions of the cooling lubricant are contaminated massively each day for 3 months with microbes (bacteria, yeasts and moulds) isolated from microbially decayed cooling lubricant use dilutions.

fungi = assay: Mould resistance of PVA emulsion paint films (paint fungicide test, Report 219 Defense Standards Laboratories); conditions: 28° to 30° C., 90 to 95% relative humidity, evaluated after 3 weeks; active compound E: even after ageing
Protocol: Testing is carried out in accordance with the method in Report 219 of the Defense Standards Laboratories Maribyrnong/Australia as follows: a smooth card is coated on both sides with the paint to be tested and is dried at room temperature for 8 days. For ageing, part of the paint film is kept in running water of 24° for 24 hours, or aerated with fresh air of 40° to 60° C. for 8 days, or subjected to a dry Xenon test for 110 hours. Pieces of 5×5 cm cut out from the samples thus prepared are placed individually on a glucose nutrient medium in Petri dishes and contaminated with a spore suspension of the following fungi: Aspergillus niger, Aureobasidium pullulans, Alternaria tenuis, Penicillium citrinum, Stachybotrys atra, Paecilomyces varioti, Cladosporium herbarum, Aspergillus ustus and Aspergillus flavus.
The contaminated dishes are stored at 28° to 30° C. and 90 to 95% relative atmospheric humidity, and are evaluated after 3 weeks. Paint films are regarded as mould-resistant if the samples remain free from fungi after these tests.
A commercially available emulsion paint based on PVA is tested for mould resistance by the test method described above.

slime organisms = assay: MIC against slime organisms in Allens nutrient solution; format: cell-based; conditions: 504 h, about 10^6 germs/ml, 3 weeks at room temperature
Protocol: Compounds according to the invention are used in concentrations of in each case 0.1 to 100 mg/l in Allens nutrient solution (Arch. Mikrobiol. 17, 34 to 53 (1952)), which contains, in 4 l of sterile water, 0.2 g of ammonium chloride, 4.0 g of sodium nitrate, 1.0 g of dipotassium hydrogen phosphate, 0.2 g of calcium chloride, 2.05 g of magnesium sulphate, 0.02 g of iron chloride and 1% of caprolactam, dissolved in a little acetone. Shortly beforehand, the nutrient solutions are infected with slime organisms (about 10^6 germs/ml), which have been isolated from the spinning water circulations used in the production of polyamide. Nutrient solutions which contain the minimum inhibitory concentration (MIC) or higher concentrations of active compound are still completely clear after culture for 3 weeks at room temperature, that is to say the pronounced reproduction of the microbes and slime formation noticeable after 3 to 4 days in nutrient solutions containing no active compounds are absent.

Chaetomium globosum = assay: MIC in beerwort/peptone agar, Chaetomium globosum; format: cell-based; conditions: 28° C., 60 to 70% relative humidity, 2 weeks; for MIC: Chaetomium globosum, 336 h
Protocol: (§1) Active compounds according to the invention are added in concentrations of 0.1 mg/1 to 5,000 mg/1 to an agar prepared from beerwort and peptone. After storage at 28° C. and 60 to 70% relative atmospheric humidity for 2 weeks, the MIC is determined. The MIC is the lowest concentration of active compound at which no growth at all by the species of microbes used takes place, and is given in Table 1.

Polyporus versicolor = assay: MIC in beerwort/peptone agar, Polyporus versicolor; format: cell-based; conditions: 28° C., 60 to 70% relative humidity, 2 weeks; for MIC: Trametes versicolor, 336 h
Protocol: as §1

Alternaria tenuis = assay: MIC in beerwort/peptone agar, Alternaria tenuis; format: cell-based; conditions: 28° C., 60 to 70% relative humidity, 2 weeks; for MIC: Alternaria alternata, 336 h
Protocol: as §1

Aureobasidium pullulans = assay: MIC in beerwort/peptone agar, Aureobasidium pullulans; format: cell-based; conditions: 28° C., 60 to 70% relative humidity, 2 weeks; for MIC: Aureobasidium pullulans, 336 h
Protocol: as §1

Aspergillus niger = assay: MIC in beerwort/peptone agar, Aspergillus niger; format: cell-based; conditions: 28° C., 60 to 70% relative humidity, 2 weeks; for MIC: Aspergillus niger, 336 h
Protocol: as §1

Lentinus tigrinus = assay: MIC in beerwort/peptone agar, Lentinus tigrinus; format: cell-based; conditions: 28° C., 60 to 70% relative humidity, 2 weeks; for MIC: Lentinus tigrinus, 336 h
Protocol: as §1

Trichoderma viride = assay: MIC in beerwort/peptone agar, Trichoderma viride; format: cell-based; conditions: 28° C., 60 to 70% relative humidity, 2 weeks; for MIC: Trichoderma viride, 336 h
Protocol: as §1

Penicillium glaucum = assay: MIC in beerwort/peptone agar, Penicillium glaucum; format: cell-based; conditions: 28° C., 60 to 70% relative humidity, 2 weeks; for MIC: Penicillium, 336 h
Protocol: as §1

Sclerophoma pityophila = assay: MIC in beerwort/peptone agar, Sclerophoma pityophila; format: cell-based; conditions: 28° C., 60 to 70% relative humidity, 2 weeks; for MIC: Sydowia polyspora, 336 h
Protocol: as §1

Coniophora puteana = assay: MIC in beerwort/peptone agar, Coniophora puteana; format: cell-based; conditions: 28° C., 60 to 70% relative humidity, 2 weeks; for MIC: Coniophora puteana, 336 h
Protocol: as §1

[2] = Water solubility of potassium salt; format: physicochemical
Protocol: 12.3 g (0.05 mole) of 2-(1H-pyrazol-1-yl)-6-chloro-4(3H)-quinazolinone (=compound from Example 4) are stirred in 1 liter of water with 45 ml of 1 N KOH for 1 hour. Residues of the starting material which have remained undissolved are removed, the clear solution is evaporated in vacuo and the solid residue is dried at 110° C. to give 12.2 g of water-soluble potassium salt of the quinazolinone employed.

| Compound | MIC (slime organisms) [µg/mL] | MIC (Chaetomium globosum) [µg/mL] | MIC (Polyporus versicolor) [µg/mL] | MIC (Alternaria tenuis) [µg/mL] | MIC (Aureobasidium pullulans) [µg/mL] | MIC (Aspergillus niger) [µg/mL] | MIC (Lentinus tigrinus) [µg/mL] | MIC (Trichoderma viride) [µg/mL] | MIC (Penicillium glaucum) [µg/mL] | MIC (Sclerophoma pityophila) [µg/mL] | MIC (Coniophora puteana) [µg/mL] | other results |
| --- | --- | --- | --- | --- | --- | --- | --- | --- | --- | --- | --- | --- |
| benzyl alcohol mono(poly)hemiformal |  |  |  |  |  |  |  |  |  |  |  | state of cooling lubricant use dilutions at the end of the testing period [1]: show attack by mould at the end of the testing period |
| CN(C)C(=S)SSC(=S)N(C)C [tetramethylthiuram disulphide, reference compound] |  |  |  |  |  |  |  |  |  |  |  | content of fungicide at which PVA emulsion paint films are mould-resistant (fungi): ≥ 4% |
| O=c1[nH]c(-n2cccn2)nc2cc(Cl)ccc12 [Active compound H, 2-(1H-Pyrazol-1-yl)-7-chloro-4(3H)-quinazolinone] | 100 (≈ 405 µM) |  |  |  |  |  |  |  |  |  |  |  |
| Cc1cnn(-c2nc3ccccc3c(=O)[nH]2)c1 [Active compound B, 2-(4-Methyl-1H-pyrazol-1-yl)-4(3H)-quinazolinone] |  | < 20 | < 10 | 75 (≈ 332 µM) | 10 (≈ 44.2 µM) | 50 (≈ 221 µM) | < 10 | 50 (≈ 221 µM) | 7 (≈ 30.9 µM) | 50 (≈ 221 µM) |  |  |
| Cc1cnn(-c2nc3ccc(Cl)cc3c(=O)[nH]2)c1 [Active compound G, 2-(4-Methyl-1H-pyrazol-1-yl)-6-chloro-4-(3H)-quinazolinone] |  | 1 (≈ 3.84 µM) |  |  |  |  |  |  | 7 (≈ 26.9 µM) | 5 (≈ 19.2 µM) | 1 (≈ 3.84 µM) |  |
| Cc1ccn(-c2nc3ccccc3c(=O)[nH]2)n1 [Active compound C, 2-(3-Methyl-1H-pyrazol-1-yl)-4(3H)-quinazolinone] | 100 (≈ 442 µM) | 5 (≈ 22.1 µM) | 35 (≈ 155 µM) | 15 (≈ 66.3 µM) | 50 (≈ 221 µM) | 35 (≈ 155 µM) | 20 (≈ 88.4 µM) | 50 (≈ 221 µM) | 75 (≈ 332 µM) | 10 (≈ 44.2 µM) | < 0.1 |  |
| O=c1[nH]c(-n2cccn2)nc2ccccc12 [Active compound A, 2-(1H-Pyrazol-1-yl)-4-(3H)-quinazolinone] | 30 (≈ 141 µM) | 100 (≈ 471 µM) | 20 (≈ 94.2 µM) | 20 (≈ 94.2 µM) | 5 (≈ 23.6 µM) | 100 (≈ 471 µM) | 20 (≈ 94.2 µM) | 100 (≈ 471 µM) | 100 (≈ 471 µM) | 20 (≈ 94.2 µM) | 1 (≈ 4.71 µM) |  |
| Isomer mixture of 2-(3- and 5-methyl-1H-pyrazol-1-yl)-4(3H)-quinazolinone [Active compound E] |  |  |  |  |  |  |  |  |  |  |  | MIC value, Chaetomium globosum (Chaetomium globosum): 3 µg/mL; MIC value, Polyporus versicolor (Polyporus versicolor): 35 µg/mL; MIC value, Alternaria tenuis (Alternaria tenuis): 75 µg/mL; MIC value, Coniophora puteana (Coniophora puteana): 1 µg/mL; MIC value, Aureobasidium pullulans (Aureobasidium pullulans): 15 µg/mL; MIC value, Aspergillus niger (Aspergillus niger): 50 µg/mL; MIC value, Lentinus tigrinus (Lentinus tigrinus): 20 µg/mL; content of fungicide at which PVA emulsion paint films are mould-resistant (fungi): 0.5%; MIC value, Trichoderma viride (Trichoderma viride): 75 µg/mL; MIC value, Penicillium glaucum (Penicillium glaucum): 35 µg/mL; MIC value, Sclerophoma pityophila (Sclerophoma pityophila): 2 µg/mL |
| CCc1cnn(-c2nc3ccccc3c(=O)[nH]2)c1 [Active compound F, 2-(4-Ethyl-1H-pyrazol-1-yl)-4(3H)-quinazolinone] | 30 (≈ 125 µM) | < 20 | 30 (≈ 125 µM) |  | 50 (≈ 208 µM) | 50 (≈ 208 µM) | 20 (≈ 83.2 µM) | 50 (≈ 208 µM) | 35 (≈ 146 µM) | 50 (≈ 208 µM) |  |  |
| O=c1[nH]c(-n2cccn2)nc2ccc(Cl)cc12 [Example 32, 2-(1H-pyrazol-1-yl)-6-chloro-4(3H)-quinazolinone] |  |  |  |  |  |  |  |  |  |  |  | water solubility (in words) [2]: water-soluble |
| Cc1ccnn1-c1nc2ccccc2c(=O)[nH]1 [Active compound D, 2-(5-Methyl-1H-pyrazol-1-yl)-4(3H)-quinazolinone] | 75 (≈ 332 µM) | 5 (≈ 22.1 µM) | 15 (≈ 66.3 µM) | 15 (≈ 66.3 µM) | 35 (≈ 155 µM) | 35 (≈ 155 µM) | 20 (≈ 88.4 µM) | 50 (≈ 221 µM) | 35 (≈ 155 µM) | 50 (≈ 221 µM) | < 0.1 |  |
